Experimental data taken from US20030176316A1, “Methods for treatment of rheumatoid arthritis” (priority 2001, published 2003).
Where a name gives a salt, the structure may show the parent alone. Read-outs that look alike come from different tables or passages of the source. Each block holds one compound with its values, some of them ahead of it.

Tests used:
[1] = biological target: T1, GST-cGB-PDE5 fusion protein (cGMP binding sites of human PDE5A) (Homo sapiens, UniProt O76074); experiment: cGMP binding assay with GST-cGB-PDE5 fusion protein
T1 construct: made in house; host or cells: E. coli BL21 (DE3)
Text: RT-PCR method is used to obtain the cGB domain of PDE5 with forward and reverse primers designed from bovine PDE5A cDNA sequence (McAllister-Lucas L. M. et al., J Biol. Chem. 268, 22863-22873, 1993) and the selection among PDE 1-10 families. 5′-3′, Inc. kits for total RNA followed by oligo (dT) column purification of mRNA are used with HT-29 cells. […] It is then cloned into pGEX-5×-3 glutathione-S-transferase (GST) fusion vector (Pharmacia Biotech )with tac promoter, and EcoRI and XhoI cut sites. The fusion vector is then transfected into E. Coli BL21 (DE3) bacteria (Invitrogen). The transfected BL21 bacteria is grown to log phase, and then IPTG is added as an induce. The induction is carried at 20° C. for 24 hrs. The bacteria are harvested and lysed. The soluble cell lysate is incubated with GSH conjugated Sepharose 4B (GSH-Sepharose 4B). The GST-cGB-PDE5 fusion protein can bind to the GSH-Sepharose beads, and the other proteins are washed off from beads with excessive cold PBS.
Then, the mixture is transferred to Brandel MB-24 cell harvester with GF/B as the filter membrane followed by 2 washes with 10 mL of cold 5 mM potassium buffer(pH 6.8). The membranes are then cut out and transferred to scintillation, vials followed by the addition of 1 mL of H2O and 6 mL of Ready Safe™ liquid scintillation cocktail to each vial. The vials are counted on a Beckman LS 6500 scintillation counter.
The quenching by filter membrane or other debris are also calibrated.

PDE 5 = PDE 5 (Homo sapiens, UniProt O76074); experiment: competitive (with cGMP) binding to PDE5
[2] = seven-day dose-range finding study in rats; type: in vivo; conditions: seven days, 2000 mg/kg/day
28-day study in rats = type: in vivo; conditions: 28 days, 50 and 500 mg/kg/day
Protocol: A 28-day study in rats was also carried out at 0, 50, 500 and 2000 mg/kg/day.

[3] = long-term safety assessment study in rats, 91 days; type: in vivo
Text: These changes were not associated with any gross clinical abnormality.

[4] = 91-day oral study in dogs; type: in vivo; conditions: 91 days, highest dose group
U937 cells = experiment: apoptosis induction of U937 cells (active caspase 3, indirect immunofluorescence); type: cell-based; conditions: 24 hours
Protocol: U937 cells (from ATCC Rockville, Md.) were grown in RPMI media supplemented with 5% FCS, glutamine, antibiotic/antimycotic and sodium pyruvate. Total RNA was isolated from two U937 cultures, one treated with 5nM TPA for 48 hours and one grown in normal media as listed above, using the Rouche High Pure RNA Isolation Kit (cat# 1 828 665) as per manufacturers protocol. cDNA was then synthesized from the total RNA using GibcoBRL Superscriptll (Cat# 18064-022) reverse transcriptase as per manufacturers protocol. The resulting cDNA was used as a template for RT-PCR reactions using primer sets specific for PDE2 (forward: […], reverse: […]) or PDE5 (forward: […], reverse: […]). mRNA for PDE2 and 5 were both present in the untreated U937 cells. Upon treatment with TPA, the relative amounts of PDE2 mRNA increased 5 fold. Therefore, U937 cells treated with TPA and driven to differentiate into an activated macrophage like state have elevated levels of PDE2 mRNA (see FIG. 1).
The presence of PDE2 and PDE5 protein within U937 cells was confirmed by indirect immunofluorescence (IIF). U937 cells were cultured as above. Two U937 cultures, one grown in the presence of 5 nM TPA for 48 hours and one grown in normal media were processed. All cultures were collected by centrifugation (Shandon Cytospin, 2 minutes @ 600 rpm) onto poly-L lysine-coated slides and immediately fixed in fresh 3% paraformaldehyde buffered in PBS for 10 minutes. Adherent cultures were grown on coverslips and fixed as above. Cells were permeablized in 0.2% triton-100 for 2 minutes. Slides were blocked with blocking buffer (5% goat serum, 5% glycerol, 1% gelatin from cold water fish skin and 0.04% NaN3 in PBS) for 1 hour at room temperature.
Slides were then incubated for 1 hour at 37° C. in a humid chamber with antibodies specific for PDE2 (generated in a sheep against the peptide […]) or PDE5 (generated in sheep against the peptide […]). […]
The level of apoptosis in U937 cells was quantified by scoring 500 consecutive cells for the presence of active caspase 3. […]

- competition with cGMP in binding to the cGMP binding sites of GST-cGB-PDE5 ([1]; 3H-cGMP 2 μM, 22° C., 1 hour): did not compete with cGMP in binding
SMILES: CCCCOC1C2OP(=O)(O)OCC2OC1n1cnc2c(N)ncnc21 (centres unmarked) [2′-O-butyl-cAMP]

- competition with cGMP in binding to the cGMP binding sites of GST-cGB-PDE5 ([1]; 3H-cGMP 2 μM, 22° C., 1 hour): did not compete with cGMP in binding
SMILES: CCCCOC1C2OP(=O)(O)OCC2OC1n1cnc2c(=O)[nH]c(N)nc21 (centres unmarked) [2′-O-butyl-cGMP]

SMILES: Nc1ncnc2c1ncn2[C@@H]1O[C@@H]2COP(=O)(O)O[C@H]2[C@H]1O [Cyclic AMP]
- competition with cGMP in binding to the cGMP binding sites of GST-cGB-PDE5 [1]: did not compete with cGMP in binding

- liver and thyroid weight increases at the lower doses (28-day study in rats): not statistically significant
- microscopic alterations of the liver [4]: no microscopic alterations
SMILES: CC1=C(CC(=O)NCc2ccccc2)c2cc(F)ccc2/C1=C\c1ccncc1 [Example 38, (Z)-5-Fluoro-2-Methyl-(4-Pyridylidene)-3-(N-Benzyl) Indenylacetamide Hydrochloride]
- competition with cGMP in binding to the cGMP binding sites of GST-cGB-PDE5 ([1]; 3H-cGMP 2 μM, 22° C., 1 hour): does not bind to the cGMP-binding site of PDE5
- competitive (with cGMP) binding to PDE 5 (PDE 5): does competitively (with cGMP) bind to PDE 5
- effects [2]: labored breathing and/or abnormal respiratory sounds, decreased weights gains and food consumption ion male rats, and increased liver weights in female rats
- clinical biochemistry and hematology [3]: no changes in clinical biochemistry and hematology were evident
- apoptosis, fluorescent image of active caspase 3 (FIG. 8) (U937 cells; 1 μM): undergoing apoptosis as reflected by the presence of active caspase 3

- competition with cGMP in binding to the cGMP binding sites of GST-cGB-PDE5 ([1]; 3H-cGMP 2 μM, 22° C., 1 hour): did not compete with cGMP in binding
SMILES: Nc1ccn([C@@H]2O[C@@H]3COP(=O)(O)O[C@H]3[C@H]2O)c(=O)n1 [cCMP, cyclic CMP]

- competition with cGMP in binding to the cGMP binding sites of GST-cGB-PDE5 ([1]; 3H-cGMP 2 μM, 22° C., 1 hour): did not compete with cGMP in binding
SMILES: O=c1ccn([C@@H]2O[C@@H]3COP(=O)(O)O[C@H]3[C@H]2O)c(=O)[nH]1 [cUMP, cyclic UMP]

SMILES: COc1ccc(C2CNC(=O)C2)cc1OC1CCCC1 (centres unmarked) [rolipram]
- levels of apoptosis (active caspase 3) (U937 cells; 0.5 μM): No increase in the levels of apoptosis compared to normal background

SMILES: CCCc1nn(C)c2c(=O)[nH]c(-c3cc(S(=O)(=O)N4CCN(C)CC4)ccc3OCC)nc12 [sildenafil]
- levels of apoptosis (active caspase 3) (U937 cells; 0.3 nM): No increase in the levels of apoptosis compared to normal background
